Measurements published in publication PMC5218480 (PLoS ONE, 2017).

Test system: MV-4-11 cells
Experiment: Gene expression microarray analysis (Affymetrix PrimeView) and GSEA
Assay type: cell-based, human
Parameters: RFU PODN (11730768_x_at) / Fold change /veh PODN (11730768_x_at) / RFU LINC00158 (11744669_a_at) / Fold change /veh LINC00158 (11744669_a_at) / RFU DUSP10 (11751237_a_at) / Fold change /veh DUSP10 (11751237_a_at) / RFU ID3 (11757404_x_at) / Fold change /veh ID3 (11757404_x_at) / RFU PLEKHG5 (11737974_s_at) / Fold change /veh PLEKHG5 (11737974_s_at) / RFU LRRC4B (11730491_at) / Fold change /veh LRRC4B (11730491_at) / RFU GIMAP4 (11747438_a_at) / Fold change /veh GIMAP4 (11747438_a_at) / RFU KRT8 (11758183_x_at) / Fold change /veh KRT8 (11758183_x_at) / RFU CNN1 (11734310_a_at) / Fold change /veh CNN1 (11734310_a_at) / RFU VPS37D (11726825_at) / Fold change /veh VPS37D (11726825_at) / RFU C10orf10 (11716522_x_at) / Fold change /veh C10orf10 (11716522_x_at) / RFU KIR2DL2 /// KIR2DL4 /// KIR2DL5A /// KIR2DL5B /// KIR2DS1 /// KIR2DS2 /// KIR2DS3 /// KIR2DS4 /// KIR3DL3 /// KIR3DL3 /// KIR3DS1 (11738374_at) / Fold change /veh KIR2DL2 /// KIR2DL4 /// KIR2DL5A /// KIR2DL5B /// KIR2DS1 /// KIR2DS2 /// KIR2DS3 /// KIR2DS4 /// KIR3DL3 /// KIR3DL3 /// KIR3DS1 (11738374_at) / RFU C1QL1 (11718748_at) / Fold change /veh C1QL1 (11718748_at) / RFU TMPRSS4 (11747572_a_at) / Fold change /veh TMPRSS4 (11747572_a_at) / RFU HAMP (11756126_x_at) / Fold change /veh HAMP (11756126_x_at) / RFU RNFT2 (11725882_a_at) / Fold change /veh RNFT2 (11725882_a_at) / RFU NR4A2 (11747474_a_at) / Fold change /veh NR4A2 (11747474_a_at) / RFU ABCC12 (11746883_a_at) / Fold change /veh ABCC12 (11746883_a_at) / RFU TMEM136 (11760407_x_at) / Fold change /veh TMEM136 (11760407_x_at) / RFU CLDN22 /// WWC2 (11732394_at) / Fold change /veh CLDN22 /// WWC2 (11732394_at) / RFU HLA-DPB1 (11760878_x_at) / Fold change /veh HLA-DPB1 (11760878_x_at) / RFU SPINT1 (11716480_a_at) / Fold change /veh SPINT1 (11716480_a_at) / RFU GAP43 (11754022_s_at) / Fold change /veh GAP43 (11754022_s_at) / RFU A4GNT (11735810_at) / Fold change /veh A4GNT (11735810_at) / RFU PRB3 (11715151_x_at) / Fold change /veh PRB3 (11715151_x_at) / RFU TUBB4B (11761932_at) / Fold change /veh TUBB4B (11761932_at) / RFU CAPN14 (11732068_a_at) / Fold change /veh CAPN14 (11732068_a_at) / RFU TMCC2 (11721928_a_at) / Fold change /veh TMCC2 (11721928_a_at) / RFU IRGQ (11745062_a_at) / Fold change /veh IRGQ (11745062_a_at) / RFU FAM174B (11720279_a_at) / Fold change /veh FAM174B (11720279_a_at) / RFU TMPRSS4 (11748680_a_at) / Fold change /veh TMPRSS4 (11748680_a_at) / RFU FAM212B (11763350_a_at) / Fold change /veh FAM212B (11763350_a_at) / RFU PLEKHG5 (11743358_a_at) / Fold change /veh PLEKHG5 (11743358_a_at) / RFU ZSCAN30 (11745921_a_at) / Fold change /veh ZSCAN30 (11745921_a_at) / RFU CMKLR1 (11741424_a_at) / Fold change /veh CMKLR1 (11741424_a_at) / RFU LOC101060620 /// MAPK8IP1 (11723275_at) / Fold change /veh LOC101060620 /// MAPK8IP1 (11723275_at) / RFU SPTSSB (11747773_x_at) / Fold change /veh SPTSSB (11747773_x_at) / RFU PRSS12 (11739890_at) / Fold change /veh PRSS12 (11739890_at) / RFU BIN1 (11741810_x_at) / Fold change /veh BIN1 (11741810_x_at) / RFU WNT11 (11732464_a_at) / Fold change /veh WNT11 (11732464_a_at) / RFU C10orf10 (11716521_a_at) / Fold change /veh C10orf10 (11716521_a_at) / RFU C5orf56 (11738089_at) / Fold change /veh C5orf56 (11738089_at) / RFU CYB561 (11721691_x_at) / Fold change /veh CYB561 (11721691_x_at) / RFU ANKRD19P (11752326_a_at) / Fold change /veh ANKRD19P (11752326_a_at) / RFU OR2T12 /// OR2T33 /// OR2T8 (11738714_s_at) / Fold change /veh OR2T12 /// OR2T33 /// OR2T8 (11738714_s_at) / RFU VCAN (11748164_a_at) / Fold change /veh VCAN (11748164_a_at) / RFU JSRP1 (11732532_at) / Fold change /veh JSRP1 (11732532_at) / RFU KRTAP10-11 (11738290_x_at) / Fold change /veh KRTAP10-11 (11738290_x_at) / RFU MYO3A (11730013_a_at) / Fold change /veh MYO3A (11730013_a_at) / RFU EBF3 (11725865_a_at) / Fold change /veh EBF3 (11725865_a_at) / RFU CAMK2N1 (11719241_x_at) / Fold change /veh CAMK2N1 (11719241_x_at) / RFU C5orf56 (11738088_a_at) / Fold change /veh C5orf56 (11738088_a_at) / RFU OLFML3 (11715873_a_at) / Fold change /veh OLFML3 (11715873_a_at) / RFU LOC100653217 /// NTM (11731650_a_at) / Fold change /veh LOC100653217 /// NTM (11731650_a_at) / RFU MAPK11 (11762145_a_at) / Fold change /veh MAPK11 (11762145_a_at) / RFU FIZ1 (11724087_x_at) / Fold change /veh FIZ1 (11724087_x_at) / RFU OASL (11726364_x_at) / Fold change /veh OASL (11726364_x_at) / RFU SOX15 (11748057_x_at) / Fold change /veh SOX15 (11748057_x_at) / RFU CD79A (11719716_a_at) / Fold change /veh CD79A (11719716_a_at) / RFU HIST1H1D (11736915_at) / Fold change /veh HIST1H1D (11736915_at) / RFU CASKIN2 (11723855_a_at) / Fold change /veh CASKIN2 (11723855_a_at) / RFU LOC730098 (11760151_x_at) / Fold change /veh LOC730098 (11760151_x_at) / RFU OR4N2 (11742367_at) / Fold change /veh OR4N2 (11742367_at) / RFU PRRT2 (11749266_a_at) / Fold change /veh PRRT2 (11749266_a_at) / RFU SNX32 (11753110_a_at) / Fold change /veh SNX32 (11753110_a_at) / RFU CDHR5 (11726645_a_at) / Fold change /veh CDHR5 (11726645_a_at) / RFU RCAN1 (11760418_a_at) / Fold change /veh RCAN1 (11760418_a_at) / RFU FAM167A (11723789_a_at) / Fold change /veh FAM167A (11723789_a_at) / RFU FAM26E (11764081_at) / Fold change /veh FAM26E (11764081_at) / RFU ISYNA1 (11749810_s_at) / Fold change /veh ISYNA1 (11749810_s_at) / RFU ACY1 (11761880_at) / Fold change /veh ACY1 (11761880_at) / RFU 11764098_at / Fold change /veh 11764098_at / RFU SAMD14 (11745864_x_at) / Fold change /veh SAMD14 (11745864_x_at) / RFU NPB (11741838_a_at) / Fold change /veh NPB (11741838_a_at) / RFU TMPRSS6 (11731388_a_at) / Fold change /veh TMPRSS6 (11731388_a_at) / RFU KRTAP10-2 (11738614_at) / Fold change /veh KRTAP10-2 (11738614_at) / RFU ARHGAP8 /// PRR5-ARHGAP8 (11727945_x_at) / Fold change /veh ARHGAP8 /// PRR5-ARHGAP8 (11727945_x_at) / RFU KRTAP5-7 /// NADSYN1 (11734609_at) / Fold change /veh KRTAP5-7 /// NADSYN1 (11734609_at) / RFU RASL12 (11751679_a_at) / Fold change /veh RASL12 (11751679_a_at) / RFU CDKN2B (11736163_a_at) / Fold change /veh CDKN2B (11736163_a_at) / RFU PRF1 (11729649_at) / Fold change /veh PRF1 (11729649_at) / RFU, ZNF638 /// ZNF638-IT1 / Fold change vs veh, ZNF638 /// ZNF638-IT1 / RFU, PANK3 / Fold change vs veh, PANK3 / RFU, SH3YL1 / Fold change vs veh, SH3YL1 / RFU, ZEB2 / Fold change vs veh, ZEB2 / RFU, NRIP1 / Fold change vs veh, NRIP1 / RFU, PTTG1IP / Fold change vs veh, PTTG1IP / RFU, CAPN2 / Fold change vs veh, CAPN2 / RFU, MED14 / Fold change vs veh, MED14 / RFU, SNORA58 / Fold change vs veh, SNORA58 / RFU, C1orf63 / Fold change vs veh, C1orf63 / RFU, LRRFIP1 / Fold change vs veh, LRRFIP1 / RFU, NDUFAF7 / Fold change vs veh, NDUFAF7 / RFU, SLC12A2 / Fold change vs veh, SLC12A2 / RFU, IBTK / Fold change vs veh, IBTK / RFU, ESF1 / Fold change vs veh, ESF1 / Fold change vs veh, TMEM50B / RFU, TAOK1 / Fold change vs veh, TAOK1 / RFU, ACBD3 / Fold change vs veh, ACBD3 / RFU, TMA16 / Fold change vs veh, TMA16 / RFU, RWDD3 / Fold change vs veh, RWDD3 / RFU, BCAT1 / Fold change vs veh, BCAT1 / RFU, EDEM3 / Fold change vs veh, EDEM3 / RFU, TMEM33 / Fold change vs veh, TMEM33 / RFU, WDR75 / Fold change vs veh, WDR75 / RFU, AHCTF1 / Fold change vs veh, AHCTF1 / RFU, TFRC / Fold change vs veh, TFRC / RFU, ZDHHC17 / Fold change vs veh, ZDHHC17 / RFU, NOM1 / Fold change vs veh, NOM1 / RFU, ARL8B / Fold change vs veh, ARL8B / RFU, ZBTB11 / Fold change vs veh, ZBTB11 / RFU, TAMM41 / Fold change vs veh, TAMM41 / RFU, KIAA1704 /// LOC100996395 / Fold change vs veh, KIAA1704 /// LOC100996395 / RFU, ING1 / Fold change vs veh, ING1 / RFU, TRMT61B / Fold change vs veh, TRMT61B / RFU, FUBP3 / Fold change vs veh, FUBP3 / RFU, TP53 / Fold change vs veh, TP53 / RFU, TNKS2 / Fold change vs veh, TNKS2 / RFU, ZFP14 / Fold change vs veh, ZFP14 / RFU, ACTR2 / Fold change vs veh, ACTR2 / RFU, PPP3R1 / Fold change vs veh, PPP3R1 / RFU, PIK3R1 / Fold change vs veh, PIK3R1 / RFU, HNRNPA1 / Fold change vs veh, HNRNPA1 / RFU, RNF170 / Fold change vs veh, RNF170 / RFU, ZNF28 / Fold change vs veh, ZNF28 / RFU, RNGTT / Fold change vs veh, RNGTT / RFU, OGT / Fold change vs veh, OGT / RFU, BRD1 / Fold change vs veh, BRD1 / RFU, MARS / Fold change vs veh, MARS / RFU, ZNF655 / Fold change vs veh, ZNF655 / RFU, FAHD1 / Fold change vs veh, FAHD1 / RFU, BDP1 / Fold change vs veh, BDP1 / RFU, LRRCC1 / Fold change vs veh, LRRCC1 / RFU, ARID1A / Fold change vs veh, ARID1A / RFU, ZNF146 / Fold change vs veh, ZNF146 / RFU, ZNF330 / Fold change vs veh, ZNF330 / RFU, GPN3 / Fold change vs veh, GPN3 / RFU, C9orf123 / Fold change vs veh, C9orf123 / RFU, N4BP2L2 / Fold change vs veh, N4BP2L2 / RFU, ARFIP1 / Fold change vs veh, ARFIP1 / RFU, FAM179B / Fold change vs veh, FAM179B / RFU, BCL10 / Fold change vs veh, BCL10 / RFU, UHRF1BP1L / Fold change vs veh, UHRF1BP1L / RFU, BET1 / Fold change vs veh, BET1 / RFU, CNOT2 / Fold change vs veh, CNOT2 / RFU, ZNF268 / Fold change vs veh, ZNF268 / Fold change vs veh, ZNF507 / RFU, DGCR2 / Fold change vs veh, DGCR2 / RFU, WDSUB1 / Fold change vs veh, WDSUB1 / Fold change vs veh, HSP90B1 /// MIR3652 / RFU, ADSS / Fold change vs veh, ADSS / RFU, GK / Fold change vs veh, GK / RFU, ZNF148 / Fold change vs veh, ZNF148 / RFU, TAF9 / Fold change vs veh, TAF9 / RFU, SLC1A5 / Fold change vs veh, SLC1A5 / RFU, SLMO2 / Fold change vs veh, SLMO2 / RFU, ABCC4 / Fold change vs veh, ABCC4 / RFU, LOC101060439 /// RAP1B / Fold change vs veh, LOC101060439 /// RAP1B / RFU, RFX7 / Fold change vs veh, RFX7 / RFU, GTPBP10 / Fold change vs veh, GTPBP10 / RFU, CNEP1R1 / Fold change vs veh, CNEP1R1 / RFU, BIVM-ERCC5 /// ERCC5 / Fold change vs veh, BIVM-ERCC5 /// ERCC5 / RFU, ILF3 / Fold change vs veh, ILF3 / RFU 11762660_at / Fold change /veh 11762660_at / RFU VCAN (11757783_s_at) / Fold change /veh VCAN (11757783_s_at) / RFU DDX43 (11728927_at) / Fold change /veh DDX43 (11728927_at) / RFU KRT8 (11758188_x_at) / Fold change /veh KRT8 (11758188_x_at) / RFU NKD1 (11759106_at) / Fold change /veh NKD1 (11759106_at) / RFU SRD5A1 (11742802_a_at) / Fold change /veh SRD5A1 (11742802_a_at) / RFU TPSAB1 /// TPSB2 (11721975_s_at) / Fold change /veh TPSAB1 /// TPSB2 (11721975_s_at) / RFU GSTM3 (11746129_a_at) / Fold change /veh GSTM3 (11746129_a_at) / RFU IL23R (11737362_x_at) / Fold change /veh IL23R (11737362_x_at) / RFU TMEM51 (11727254_a_at) / Fold change /veh TMEM51 (11727254_a_at) / RFU PIWIL2 (11732686_x_at) / Fold change /veh PIWIL2 (11732686_x_at) / RFU ORM1 (11744905_x_at) / Fold change /veh ORM1 (11744905_x_at) / RFU CCDC152 (11743942_at) / Fold change /veh CCDC152 (11743942_at) / RFU ECM1 (11717891_a_at) / Fold change /veh ECM1 (11717891_a_at) / RFU IL23R (11748794_a_at) / Fold change /veh IL23R (11748794_a_at) / RFU TNFAIP8L3 (11732012_x_at) / Fold change /veh TNFAIP8L3 (11732012_x_at) / RFU MBOAT4 (11741988_at) / Fold change /veh MBOAT4 (11741988_at) / RFU 11764193_at / Fold change /veh 11764193_at / RFU TMEM53 (11763286_at) / Fold change /veh TMEM53 (11763286_at) / RFU MAGEB2 (11727129_at) / Fold change /veh MAGEB2 (11727129_at) / RFU TMEM200A (11744735_a_at) / Fold change /veh TMEM200A (11744735_a_at) / RFU CCDC152 (11751479_a_at) / Fold change /veh CCDC152 (11751479_a_at) / RFU FAM211A (11726209_a_at) / Fold change /veh FAM211A (11726209_a_at) / RFU RGS16 (11746705_a_at) / Fold change /veh RGS16 (11746705_a_at) / RFU VCAN (11755009_s_at) / Fold change /veh VCAN (11755009_s_at) / RFU RHOB (11743442_s_at) / Fold change /veh RHOB (11743442_s_at) / RFU RGS16 (11720943_a_at) / Fold change /veh RGS16 (11720943_a_at) / RFU RGS16 (11720944_at) / Fold change /veh RGS16 (11720944_at) / RFU, VPS4B / Fold change vs veh, VPS4B / RFU, CREB1 / Fold change vs veh, CREB1 / RFU, DNAJC13 / Fold change vs veh, DNAJC13 / RFU, GNAQ / Fold change vs veh, GNAQ / RFU, CDK5R1 / Fold change vs veh, CDK5R1 / RFU, ZRANB3 / Fold change vs veh, ZRANB3 / RFU, CUL4A / Fold change vs veh, CUL4A / RFU, CCNY / Fold change vs veh, CCNY / RFU, UFL1 / Fold change vs veh, UFL1 / RFU, COG3 / Fold change vs veh, COG3 / RFU, DIAPH2 / Fold change vs veh, DIAPH2 / RFU, SKA2 / Fold change vs veh, SKA2 / RFU, AFF3 / Fold change vs veh, AFF3 / RFU, LMF1 / Fold change vs veh, LMF1 / RFU, IPO11 / Fold change vs veh, IPO11 / RFU, DFFB / Fold change vs veh, DFFB / RFU, FOXP1 / Fold change vs veh, FOXP1 / RFU, CARD8 / Fold change vs veh, CARD8 / RFU, STRN3 / Fold change vs veh, STRN3 / RFU, ADK / Fold change vs veh, ADK / RFU, RASSF2 / Fold change vs veh, RASSF2 / RFU, WIPF1 / Fold change vs veh, WIPF1 / RFU, LARP1B / Fold change vs veh, LARP1B / RFU, RASA1 / Fold change vs veh, RASA1 / RFU, RB1 / Fold change vs veh, RB1 / RFU, PPFIA1 / Fold change vs veh, PPFIA1 / RFU, MAT2A / Fold change vs veh, MAT2A / RFU, CCT5 / Fold change vs veh, CCT5 / RFU, WDR92 / Fold change vs veh, WDR92 / RFU, CUX1 / Fold change vs veh, CUX1 / RFU, TTC7A / Fold change vs veh, TTC7A / RFU, TMEM135 / Fold change vs veh, TMEM135 / RFU, DEPTOR / Fold change vs veh, DEPTOR / RFU, CPM / Fold change vs veh, CPM / RFU, DNAJB6 / Fold change vs veh, DNAJB6 / RFU, CACNA2D3 / Fold change vs veh, CACNA2D3 / RFU, DTX4 / Fold change vs veh, DTX4 / RFU, TFCP2 / Fold change vs veh, TFCP2 / RFU, GMCL1 /// GMCL1P1 / Fold change vs veh, GMCL1 /// GMCL1P1 / RFU, AEBP2 / Fold change vs veh, AEBP2 / RFU, SNHG1 /// SNORD22 /// SNORD25 /// SNORD26 /// SNORD27 /// SNORD28 /// SNORD29 /// SNORD31 / Fold change vs veh, SNHG1 /// SNORD22 /// SNORD25 /// SNORD26 /// SNORD27 /// SNORD28 /// SNORD29 /// SNORD31 / Fold change (Aza/veh), C12orf56 (ProbeSet 11735607_a_at) / Fold change (ACY-1035/veh), C12orf56 (ProbeSet 11735607_a_at) / Fold change (Aza/veh), FGFR1OP (ProbeSet 11751329_s_at) / Fold change (ACY-1035/veh), FGFR1OP (ProbeSet 11751329_s_at) / Fold change (Aza/veh), VPS36 (ProbeSet 11739960_a_at) / Fold change (ACY-1035/veh), VPS36 (ProbeSet 11739960_a_at) / RFU SYPL1 (11715823_x_at) / Fold change /veh SYPL1 (11715823_x_at) / RFU IGFBP7 (11715501_s_at) / Fold change /veh IGFBP7 (11715501_s_at) / RFU REEP3 (11722064_at) / Fold change /veh REEP3 (11722064_at) / RFU IGLL1 (11728026_x_at) / Fold change /veh IGLL1 (11728026_x_at): dose or concentration left out as unconfirmed
Details: ProbeSet 11755436_x_at; LIST B

Compound: Nc1ccc(-c2cccs2)cc1NC(=O)c1ccc2c(c1)cc(C1CC1)n2CCN1CCOCC1 [ACY-1035]
- RFU, ARID1A: 56.79 RFU
